Measurements reported in patent US9822058B2 (CHDI FOUNDATION, INC., priority 2012, dated 2017).

Biological target: T1, KMO mouse enzyme (Mus musculus, UniProt Q91WN4)
T1 construct: KMO enzyme prepared at Evotec from mouse liver (4-6 weeks old) via mitochondria isolation; from tissue; host or cells: mouse liver (4-6 weeks old), isolated mitochondria, prepared at Evotec
Assay: KMO mouse enzyme assay: L-Kynurenine hydroxylation to 3-Hydroxy-Kynurenine by LC/MS (protocols substantially similar to Example 33)
Assay type: biochemical
Settings: compound at 30 µM; KMO enzyme from mouse liver mitochondria; 100 μM L-Kynurenine; 40 min at RT
Method: A method of monitoring L-Kynurenine (KYN) hydroxylation to form 3-Hydroxy-Kynurenine (3OH-KYN) by LC/MS is described. Product is quantified by multiple reaction monitoring (MRM method). […]
Using the assay protocols substantially similar to those of Example 33, the following compounds were tested.

T1 sequence (Q91WN4 whole entry): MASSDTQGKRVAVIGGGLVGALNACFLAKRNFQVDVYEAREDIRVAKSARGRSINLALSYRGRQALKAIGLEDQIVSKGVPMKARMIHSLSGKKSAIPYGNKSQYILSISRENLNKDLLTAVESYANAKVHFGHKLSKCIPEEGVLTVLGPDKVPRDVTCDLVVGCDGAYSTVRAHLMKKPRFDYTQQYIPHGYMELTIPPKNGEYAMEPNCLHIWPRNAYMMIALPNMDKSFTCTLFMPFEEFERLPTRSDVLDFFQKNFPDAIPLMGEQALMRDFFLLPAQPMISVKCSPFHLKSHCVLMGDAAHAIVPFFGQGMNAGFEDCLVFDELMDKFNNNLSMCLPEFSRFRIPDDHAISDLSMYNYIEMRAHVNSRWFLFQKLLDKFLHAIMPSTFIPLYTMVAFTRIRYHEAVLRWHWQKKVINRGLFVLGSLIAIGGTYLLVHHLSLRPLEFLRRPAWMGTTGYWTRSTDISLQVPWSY

In the case of O=C([O-])[C@H]1C[C@@H]1C(=O)c1ccc(C(F)(F)F)c(Cl)c1.[Na+] [Sodium (1S,2S)-2-{[3-chloro-4-(trifluoromethyl)phenyl]carbonyl}cyclopropane-1-carboxylate], the “% Inhibition at 30 µM” value is reported as 102%.
